Reference: publication PMC10198977, “Computational design of dynamic receptor—peptide signaling complexes applied to chemotaxis” (Nature Communications, 2023)
Residues, ends and D or L forms follow the SMILES beside them. No end group written: not given here.

Experiments:
Assay type in all cases: cell-based
WT CXCR4 = WT CXCR4 (Homo sapiens, UniProt P61073); assay: Gαi BRET of peptides on WT CXCR4; conditions: for Gi BRET (dEC50): vs WT:WT, WT receptor
Method: (§1) Lyophilized peptides were stored at −80 °C and resuspended in assay buffer on the day of the experiment.
(§2) 40,000 HEK 293T cells were transiently transfected with WT or variant HA3-CXCR4, Gαi1−91-Rluc8, Gβ3-WT, and Gγ9-GFP2 in pcDNA3.1(+) at a ratio of 10:1:10:5 respectively. Cells were first seeded in 100 µL DMEM 10% FBS in a poly-lysine coated, white-walled, white-bottom 96-well plate. Directly after cell loading, 50 µL of the mixture containing Lipofectamine 2000 and the DNA was added on top of the cells. The cells were then left to incubate at 37 °C, 5% CO2, and 95% relative humidity for 20 h, after which, 150 µL media was refreshed. Cells were assayed 48 h post-transfection. Cells were washed with 150 µL PBS, then 40 µL BRET buffer (HBSS, 0.2% Glucose) was added to each well. Coelenterazine 400a was first added at a final concentration of 2.5 µM and BRET ratios were measured once using Mithras[2] LB 943 plate reader. After the first measurement, 40 µL of a 3x concentrated agonist solution was added to each well, and BRET ratios were measured for another 30 min using a Mithras[2] LB 943 plate reader. Mock-transfected controls were subtracted from the data. Maximum values averaged from 3 replicates were then plotted against selected concentrations and fitted to a sigmoidal curve using GraphPad Prism v9.

Csel2 = assay: Gαi BRET of peptides on Csel2; conditions: for Gi BRET (dEC50): vs WT:WT, Csel2 receptor
Method: as §1, §2

[1] = test system: Csel2 transduced primary human T cells; assay: Boyden chamber migration of T cells transduced with Csel2; set-up: key: migrated cells toward chemokine / migrated cells without chemoattractant; conditions: 100 nM full-length chemokine vs no chemoattractant, peak over 8 h
Method: (§3) Full-length chemokine purification
(§4) CXCL12 and variants expressed in pMS211 (pET21a-based) construct and purified as previously described. N-terminal His-tag and leader sequence cleaved with enterokinase to produce a final product with the correct N-terminal sequence. The final lyophilized protein was resuspended at 1 mg/ml in 0.1% BSA. Aliquots were snap frozen and stored at −80 °C.
(§5) Generation of human T cells expressing CXCR4 WT or variants
(§6) Peripheral blood mononuclear cells (PBMCs) were isolated from buffy coats by density gradient centrifugation (Lymphoprep, StemCell ref: 07851) and activated on plates coated with anti-CD3 ([…], Biolegend, ref: 317347, clone: OKT3) and anti-CD28 ([…], Biolegend, ref: 302934, clone: CD28.2) antibodies in T cell media (RPMI 10% FBS, 2 mM L-Glutamine, 1% Penicillin-Streptomycin) with IL-15 and IL-7 (Miltenyi Biotec, 10 ng/ml each, ref: 130-095-362 and ref: 130-095-765 respectively). The day before transduction, non-cell tissue culture treated 24-well plate (Greiner Bio-One, ref: 662102) was coated with retronectin (Takara Bio, ref: T100B) in PBS (7 μg/ml, 1 ml per well), and incubated overnight at 4 °C. Three days after activation, retronectin was removed and the plate was blocked with RPMI 10% FBS for 15 min at 37 °C. Then, media was removed and retroviral supernatant was centrifuged at 2000 × g, 1 h, 32 °C on retronectin-coated plates. Retroviral supernatant was gently removed and activated T cell suspension at 0.15 E^6 cells/ml was added, and centrifuged at 1000 × g, 10 min, 21 °C. Cells were incubated at 37 °C, 5% CO2, and 95% relative humidity for 3 days. After 48–72 h of transduction, T cells were harvested and further expanded in T cell media containing IL-7 and IL-15. Transduced T cells were positively selected with a PE selection kit (EasySep, ref: 17684) and an anti-HA PE-conjugated antibody (Biolegend, ref: 901518, clone: 16B12) at a 1:50 dilution to enrich transduced T cells. Enrichment of surface expression in PE-selected cells was confirmed by flow cytometry using a BD FACS LSR II cytometer (BD Biosciences) and analyzed with FlowJo software (BD Biosciences).
(§7) T cells transduced and selected for expression of CXCR4 variants from 3 to 6 donors were stained with 1 µM Vybrant DiO cell-labeling solution (Thermo, ref: V22886) in serum-free RPMI 1640 + GlutaMax. 40,000 cells in 75 µL were seeded in each well of 96-well Boyden chambers with 5.0 µm pores (Corning, ref: 3388)[44]. Reservoirs were filled with 200 µL serum-free RPMI 1640 + GlutaMax without chemoattractant or supplemented with 100 nM chemokine. The bottom of the attractant reservoir was imaged for migrated cells for 8 h with a Cytation 5 BioSpa (Biotek) at 37 °C with 5% CO2. Fluorescent spots were counted over time and compared to the no-chemoattractant control to calculate the migration index (# migrated cells towards chemoattractant / # migrated cells in absence of chemoattractant). The peak migration indices averaged between 3 technical replicates for each transduced donor per chemoattractant concentration were plotted.

[2] = test system: Cdyn transduced primary human T cells; assay: Boyden chamber migration of T cells transduced with Cdyn; conditions: 100 nM full-length chemokine vs no chemoattractant, peak over 8 h
Method: as §3, §4, §5, §6, §7

[3] = test system: Csedy transduced primary human T cells; assay: Boyden chamber migration of T cells transduced with Csedy; set-up: key: migrated cells toward chemokine / migrated cells without chemoattractant; conditions: 100 nM full-length chemokine vs no chemoattractant, peak over 8 h
Method: as §3, §4, §5, §6, §7

[4] = test system: WT CXCR4 transduced primary human T cells; assay: Boyden chamber migration of T cells transduced with WT CXCR4; set-up: key to Migration Index: migrated cells toward chemokine / migrated cells without chemoattractant; conditions: for Migration Index: 100 nM full-length chemokine vs no chemoattractant, peak over 8 h, WT receptor
Method: as §3, §4, §5, §6, §7

Csedy [5] = target: T1, Csedy (Homo sapiens, UniProt P61073); assay: Calcium mobilization of peptides on Csedy; conditions: Csedy receptor, Ca
T1 sequence (P61073 whole entry): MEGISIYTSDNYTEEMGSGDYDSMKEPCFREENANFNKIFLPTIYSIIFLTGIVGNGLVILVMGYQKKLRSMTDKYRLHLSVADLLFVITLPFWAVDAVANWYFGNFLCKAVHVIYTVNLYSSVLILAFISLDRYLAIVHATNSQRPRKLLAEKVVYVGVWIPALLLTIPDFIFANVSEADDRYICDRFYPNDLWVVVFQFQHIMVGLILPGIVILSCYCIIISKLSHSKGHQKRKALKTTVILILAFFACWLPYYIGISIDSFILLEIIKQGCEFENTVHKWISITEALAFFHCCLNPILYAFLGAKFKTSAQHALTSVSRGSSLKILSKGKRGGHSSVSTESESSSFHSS
Method: as §1
Calcium mobilization assays
40,000 HEK 293T cells (gift from Prof. Ted Wensel at Baylor College of Medicine) were transiently transfected with 50 ng WT or variant HA3-CXCR4, 10 ng GNA15 in pcDNA3.1(+). To equalize receptor surface expression, 75 ng of HA3-CXCR4 was used for the Csel2 variant. Cells were first seeded in 100 µL DMEM (Gibco, ref: 41965-039) 10 % FBS in a black-walled, clear-bottom 96-well plate coated with poly-lysine (Sigma, ref: P6407-5MG). Directly after cell loading, 50 µL of the mixture containing 0.5 µL Lipofectamine 2000 (Invitrogen, ref: 11668-019) and the DNA was added on top of the cells. The cells were incubated at 37 °C, 5% CO2, and 95% relative humidity for 20 h, after which, media was refreshed with 150 µL DMEM + 10% FBS. Cells were assayed 48 h post-transfection. Cells were washed with 200 µL FLIPR6 buffer (HBSS + 20 mM HEPES, pH 7.4), then incubated at 37 °C, 5% CO2, and 95% relative humidity for 2 h in 200 µL dye buffer according to the manufacturer’s protocol (Molecular Devices, ref: R8190). Just before the assay, 5× concentrated peptide solutions were prepared in FLIPR6 buffer in a V-bottom 96-well plate. After incubation, peptide solutions were added at a rate of 16 µL/s after 30 s and fluorescence changes were monitored for 90 s after addition using microplate reader FlexStation3 (Molecular Devices). The maximum response after correction by the mock-transfected condition was averaged from three replicates. Values were then plotted against selected concentrations and fitted to a sigmoidal curve using GraphPad Prism v9.

Csedy [6] = target: T1, Csedy; assay: Gαi BRET of peptides on Csedy; conditions: Csedy receptor; for log(EC50): Gi
Method: as §1, §2

WT CXCR4, sequence (P61073 whole entry): as above

Compound	Migration Index ([1]; donor/replicate 1)	Migration Index ([1]; donor/replicate 2)	Migration Index ([1]; donor/replicate 3)	Migration Index ([1]; donor/replicate 4)	Migration Index ([1]; donor/replicate 5)	Migration Index ([2]; donor/replicate 1)	Migration Index ([2]; donor/replicate 2)	Migration Index ([2]; donor/replicate 3)	Migration Index ([3]; donor/replicate 1)	Migration Index ([3]; donor/replicate 2)	Migration Index ([3]; donor/replicate 3)	Migration Index ([3]; donor/replicate 4)	Migration Index ([4]; donor/replicate 1)	Migration Index ([4]; donor/replicate 2)	Migration Index ([4]; donor/replicate 3)	Migration Index ([4]; donor/replicate 4)	also measured
Y7L: CXCL12(1-17) peptide variant, Leu at P7 (KPVSLSLRCPCRFFESH-NH2; cysteine pairing not given here)																	decrease in overall Gαi response (WT CXCR4; WT receptor (Fig. 3a)): 18%; Gi BRET (dEC50) (WT CXCR4; replicate 1): 0.3425; Gi BRET (dEC50) (WT CXCR4; replicate 2): 0.267; Gi BRET (dEC50) (WT CXCR4; replicate 3): 0.275; Gαi efficacy increase (Csel2; Csel2 receptor (Fig. 3a)): 30%; Gi BRET (dEC50) (Csel2; replicate 1): -0.2255; Gi BRET (dEC50) (Csel2; replicate 2): -0.0185; Gi BRET (dEC50) (Csel2; replicate 3): -0.357
full-length WT: full-length WT CXCL12 chemokine [reference compound]	3.533	2.962	2.156	3.087	2.058	3.5	2.758	2.302	4.556	4.556	4.738	4.774	1.882	1.899	1.407	0.96	enhanced migration ([4]; 100 nM WT CXCL12, vs no-attractant controls, WT CXCR4): around 1.5 -fold
full-length V3Y-Y7L: full-length chemokine incorporating the designed N-terminal tail V3Y-Y7L	2.938	2.133	3.389	4.146	3.781				4.478	3.833	3.752	3.787	2	2.852	2.992		Migration Index ([1]; donor/replicate 6): 2.587
full-length V3Y: full-length chemokine incorporating the designed N-terminal tail V3Y						4.176	5.188	4.028					2.294	2.226	3.315	2.878	Migration Index ([4]; donor/replicate 5): 1.825
CC(C)C[C@H](NC(=O)[C@H](CO)NC(=O)[C@H](Cc1ccc(O)cc1)NC(=O)[C@@H]1CCCN1C(=O)[C@@H](N)CCCCN)C(=O)N[C@@H](CO)C(=O)N[C@@H](CC(C)C)C(=O)N[C@@H](CCCNC(=N)N)C(=O)N[C@@H](CS)C(=O)N1CCC[C@H]1C(=O)N[C@@H](CS)C(=O)N[C@@H](CCCNC(=N)N)C(=O)N[C@@H](Cc1ccccc1)C(=O)N[C@@H](Cc1ccccc1)C(=O)N[C@@H](CCC(=O)O)C(=O)N[C@@H](CO)C(=O)N[C@@H](Cc1c[nH]cn1)C(N)=O [V3Y-Y7L] (H-KPYSLSLRCPCRFFESH-NH2)																	Efficacy (Csedy [5]; average (n=3)): 102.027 % WT; log(EC50) (Csedy [5]; replicate 1): -5.519; log(EC50) (Csedy [5]; replicate 2): -5.737; log(EC50) (Csedy [5]; replicate 3): -5.907; increase in efficacy (Csedy [6]; vs WT receptor–peptide pair): > 34%; log(EC50) (Csedy [6]; replicate 1): -6.83; log(EC50) (Csedy [6]; replicate 2): -7.058; log(EC50) (Csedy [6]; replicate 3): -7.474
